{"source": "patent US20210290651A1", "about": "“METHODS OF TREATING VIRAL INFECTIONS USING INHIBITORS OF NUCLEOTIDE SYNTHESIS PATHWAYS” (priority 2020, published 2021)", "key": {"[1]": {"tested_on": "advanced lung cancer", "settings": "weekly rapid iv injection, previously treated patients with advanced lung cancer; cited from earlier work"}, "[2]": {"tested_on": "OMP decarboxylase", "settings": "for PYR concentration: 1 μM; for OMP concentration / Orotate concentration / UMP concentration: PYR 1 μM"}, "[3]": {"experiment": "in vitro", "settings": "monkey"}, "[4]": {"tested_on": "SARS-CoV-2", "experiment": "microbe, parasite or virus in culture", "assay_type": "cell-based"}, "[5]": {"settings": "daily times 5 schedule; cited from earlier work"}, "[6]": {"settings": "patient with papillary carcinoma of the thyroid; cited from earlier work"}, "[7]": {"tested_on": "HRV1A strain 2060", "experiment": "Rhinovirus antiviral assay, inhibition of virus-induced cell killing (XTT) in H1-HeLa cells", "assay_type": "cell-based", "settings": "Enterovirus"}, "[8]": {"tested_on": "Vero E6 cells"}, "[9]": {"settings": "remdesivir dose response, brequinar 0.000 μM"}, "[10]": {"settings": "remdesivir dose response, brequinar 0.078 μM"}, "[11]": {"settings": "remdesivir dose response, brequinar 0.156 μM"}, "[12]": {"settings": "remdesivir dose response, brequinar 0.313 μM"}, "[13]": {"settings": "remdesivir dose response, brequinar 1.250 μM"}}, "note": "pEC50, pIC50: −log10 of the molar value. Where “and” joins values, the source holds several entries; their conditions need not be identical. Equal entries are not always repeated. Where two headings read alike, the source gives them in different places."}
{"smiles": "NC(=O)c1[nH]nc([C@@H]2O[C@H](CO)[C@@H](O)[C@H]2O)c1O", "note": "[PYR, 5-[(2S,3R,4S,5R)-3,4-dihydroxy-5-(hydroxymethyl)oxolan-2-yl]-4-hydroxy-1H-pyrazole-3-carboxamide]", "values": [{"measurement": "therapeutic value", "setting": "[1]", "result": "little therapeutic value as a single agent"}, {"measurement": "PYR concentration", "setting": "[2]; 1 h", "result": 0, "unit": "ng/mL"}, {"measurement": "PYR concentration", "setting": "[2]; 4 h", "result": 0, "unit": "ng/mL"}, {"measurement": "OMP concentration", "setting": "[2]; Cells, 1 hr", "result": 0, "unit": "ng/mL"}, {"measurement": "Orotate concentration", "setting": "[2]; Cells, 1 hr", "result": 339, "unit": "ng/mL"}, {"measurement": "UMP concentration", "setting": "[2]; Cells, 1 hr", "result": 552, "unit": "ng/mL"}, {"measurement": "OMP concentration", "setting": "[2]; Cells, 4 hr", "result": 10, "unit": "ng/mL"}, {"measurement": "Orotate concentration", "setting": "[2]; Cells, 4 hr", "result": 1170, "unit": "ng/mL"}, {"measurement": "UMP concentration", "setting": "[2]; Cells, 4 hr", "result": 408, "unit": "ng/mL"}, {"measurement": "OMP concentration", "setting": "[2]; Cells, 24 hr", "result": 11, "unit": "ng/mL"}, {"measurement": "Orotate concentration", "setting": "[2]; Cells, 24 hr", "result": 1220, "unit": "ng/mL"}, {"measurement": "UMP concentration", "setting": "[2]; Cells, 24 hr", "result": 326, "unit": "ng/mL"}, {"measurement": "OMP concentration", "setting": "[2]; Supernatant, 24 hr", "result": 43, "unit": "ng/mL"}, {"measurement": "Orotate concentration", "setting": "[2]; Supernatant, 24 hr", "result": 10005, "unit": "ng/mL"}, {"measurement": "UMP concentration", "setting": "[2]; Supernatant, 24 hr", "result": 69, "unit": "ng/mL"}]}
{"smiles": "NC(=O)c1ncn([C@@H]2O[C@H](CO)[C@@H](O)[C@H]2O)n1", "note": "[ribavirin]", "values": [{"measurement": "CC50", "setting": "[3]; CC50", "result": "> 50000", "unit": "nM"}, {"measurement": "pIC50", "setting": "[4]; Severe acute respiratory syndrome coronavirus 2, Vero C1008, read-out: IC50: Concentration inhibiting 50% of the virus-induced CPE compared to the no infection control", "result": "< 4.30"}, {"measurement": "EC90", "setting": "[4]; Severe acute respiratory syndrome coronavirus 2, Vero C1008; Vero E6, MOI of 0.05", "result": "> 50000", "unit": "nM"}]}
{"smiles": "Cc1c(-c2ccc(-c3ccccc3F)cc2)nc2ccc(F)cc2c1C(=O)O", "note": "[Brequinar sodium]", "values": [{"measurement": "maximum tolerated dose", "setting": "[5]", "result": 300, "unit": "mg/m^2"}, {"measurement": "recommended phase II dose", "setting": "[5]", "result": 250, "unit": "mg/m^2"}, {"measurement": "tumor response", "setting": "[6]", "result": "One mixed response"}]}
{"smiles": "CCOC(=O)/C=C/[C@H](C[C@@H]1CCNC1=O)NC(=O)[C@@H](CC(=O)[C@@H](NC(=O)c1cc(C)on1)C(C)C)Cc1ccc(F)cc1", "note": "[Rupintrivir]", "values": [{"measurement": "pEC50", "setting": "[7]", "result": 7.97}]}
{"smiles": "CCC(CC)COC(=O)[C@H](C)N[P@](=O)(OC[C@H]1O[C@@](C#N)(c2ccc3c(N)ncnn23)[C@H](O)[C@@H]1O)Oc1ccccc1", "note": "[remdesivir]", "values": [{"measurement": "CC50", "setting": "[3]; CC50, Vero E6", "result": "> 50000", "unit": "nM"}, {"measurement": "CC50", "setting": "[3]; CC50 of remdesivir", "result": "> 50000", "unit": "nM"}, {"measurement": "CC50", "setting": "[3]; CC50 of remdesivir, brequinar 0.000 μM", "result": "> 25000", "unit": "nM"}, {"measurement": "CC50", "setting": "[3]; CC50 of remdesivir, brequinar 0.078 μM", "result": "> 50000", "unit": "nM"}, {"measurement": "CC50", "setting": "[3]; CC50 of remdesivir, brequinar 0.156 μM", "result": "> 50000", "unit": "nM"}, {"measurement": "CC50", "setting": "[3]; CC50 of remdesivir, brequinar 0.313 μM", "result": "> 50000", "unit": "nM"}, {"measurement": "CC50", "setting": "[3]; CC50 of remdesivir, brequinar 1.250 μM", "result": "> 50000", "unit": "nM"}, {"measurement": "cytotoxicity of the co-treatment", "setting": "[8]; remdesivir co-treatment with brequinar", "result": "No enhanced cytotoxicity was detected"}, {"measurement": "E(Max)", "setting": "[4]", "result": 100}, {"measurement": "E(Max) of remdesivir", "setting": "[4]", "result": "95.33 and 96.37 and 95.10"}, {"measurement": "Max Data", "setting": "[4]", "result": "104.7% and 106.8% and 101.9%"}, {"measurement": "Min Data", "setting": "[4]", "result": "75.9% and 78.9% and 69.5%"}, {"measurement": "increase in activity of remdesivir", "setting": "[4]", "result": "> 6.8", "unit": "fold"}, {"measurement": "EC90", "setting": "[4]; Severe acute respiratory syndrome coronavirus 2, Vero C1008", "result": 1400, "unit": "nM"}, {"measurement": "pEC50", "setting": "[4]; Severe acute respiratory syndrome coronavirus 2, Vero C1008, brequinar 0.000 μM; read-out: EC50 of remdesivir", "result": 6.10}, {"measurement": "pIC50", "setting": "[4]; Severe acute respiratory syndrome coronavirus 2, Vero C1008, brequinar 0.000 μM; read-out: IC50 of remdesivir", "result": 6.08}, {"measurement": "pEC50", "setting": "[4]; Severe acute respiratory syndrome coronavirus 2, Vero C1008, brequinar 0.078 μM; read-out: EC50 of remdesivir", "result": 6.56}, {"measurement": "pIC50", "setting": "[4]; Severe acute respiratory syndrome coronavirus 2, Vero C1008, brequinar 0.078 μM; read-out: IC50 of remdesivir", "result": 6.53}, {"measurement": "pEC50", "setting": "[4]; Severe acute respiratory syndrome coronavirus 2, Vero C1008, brequinar 0.156 μM; read-out: EC50 of remdesivir", "result": 6.73}, {"measurement": "pIC50", "setting": "[4]; Severe acute respiratory syndrome coronavirus 2, Vero C1008, brequinar 0.156 μM; read-out: IC50 of remdesivir", "result": 6.99}, {"measurement": "pEC50", "setting": "[4]; Severe acute respiratory syndrome coronavirus 2, Vero C1008, brequinar 0.313 μM; extrapolated value; read-out: EC50 of remdesivir", "result": 8.52}, {"measurement": "pIC50", "setting": "[4]; Severe acute respiratory syndrome coronavirus 2, Vero C1008, brequinar 0.313 μM; extrapolated value; read-out: IC50 of remdesivir", "result": 8.52}, {"measurement": "pEC50", "setting": "[4]; Severe acute respiratory syndrome coronavirus 2, Vero C1008, brequinar 1.250 μM; read-out: EC50 of remdesivir", "result": "> 7.71"}, {"measurement": "pIC50", "setting": "[4]; Severe acute respiratory syndrome coronavirus 2, Vero C1008, brequinar 1.250 μM; read-out: IC50 of remdesivir", "result": "> 7.71"}, {"measurement": "pEC50", "setting": "[4]; Severe acute respiratory syndrome coronavirus 2, Vero C1008, read-out: EC50 of remdesivir", "result": "> 7.71"}, {"measurement": "pIC50", "setting": "[4]; Severe acute respiratory syndrome coronavirus 2, Vero C1008, read-out: IC50 of remdesivir", "result": "> 7.71"}, {"measurement": "pIC50", "setting": "[4]; Severe acute respiratory syndrome coronavirus 2, Vero C1008, read-out: remdesivir concentration to suppress viral replication to 50%", "result": 7.00}, {"measurement": "pEC50", "setting": "[4]; Severe acute respiratory syndrome coronavirus 2, Vero C1008; read-out: EC50: Concentration inhibiting 50% of the maximum CPE-protection effect of the compound (Emax)", "result": 6.09}, {"measurement": "pIC50", "setting": "[4]; Severe acute respiratory syndrome coronavirus 2, Vero C1008; read-out: IC50: Concentration inhibiting 50% of the virus-induced CPE compared to the no infection control", "result": 6.09}, {"measurement": "SI50: Selective Index 50 = CC50/IC50", "setting": "[4]; Vero E6", "result": ">61"}, {"measurement": "E(Max) of remdesivir", "setting": "[4]; brequinar 0.000 μM", "result": 92.02}, {"measurement": "E(Max) of remdesivir", "setting": "[4]; brequinar 0.078 μM", "result": 97.37}, {"measurement": "E(Max) of remdesivir", "setting": "[4]; brequinar 0.156 μM", "result": 122.66}, {"measurement": "E(Max) of remdesivir", "setting": "[4]; brequinar 0.313 μM", "result": 97.35}, {"measurement": "E(Max) of remdesivir", "setting": "[4]; brequinar 1.250 μM", "result": 100.22}, {"measurement": "Max Data", "setting": "[4]; [9]", "result": 97.1, "unit": "%"}, {"measurement": "Min Data", "setting": "[4]; [9]", "result": "−11", "unit": "%"}, {"measurement": "Max Data", "setting": "[4]; [10]", "result": 94.4, "unit": "%"}, {"measurement": "Min Data", "setting": "[4]; [10]", "result": "−1.9", "unit": "%"}, {"measurement": "Max Data", "setting": "[4]; [11]", "result": 102.6, "unit": "%"}, {"measurement": "Min Data", "setting": "[4]; [11]", "result": 22.1, "unit": "%"}, {"measurement": "Max Data", "setting": "[4]; [12]", "result": 103.8, "unit": "%"}, {"measurement": "Min Data", "setting": "[4]; [12]", "result": 55.4, "unit": "%"}, {"measurement": "Max Data", "setting": "[4]; [13]", "result": 105.1, "unit": "%"}, {"measurement": "Min Data", "setting": "[4]; [13]", "result": 80.1, "unit": "%"}]}
{"smiles": "CC(C)C[C@H](NC(=O)OCc1ccccc1)C(=O)N[C@@H](CC1CCNC1=O)C(O)S(=O)(=O)[O-].[Na+]", "note": "(stereo partly drawn) [GC-376]", "values": [{"measurement": "CC50", "setting": "[8]", "result": "> 50000", "unit": "nM"}, {"measurement": "E(Max)", "setting": "[4]", "result": 100}, {"measurement": "EC90", "setting": "[4]", "result": 5730, "unit": "nM"}, {"measurement": "pEC50", "setting": "[4]; read-out: EC50: Concentration inhibiting 50% of the maximum CPE-protection effect of the compound (Emax)", "result": 5.69}, {"measurement": "pIC50", "setting": "[4]; read-out: IC50: Concentration inhibiting 50% of the virus-induced CPE compared to the no infection control", "result": 5.69}]}
